From patent US10881709B2, “Immune system modulators and compositions” (Canimguide Therapeutics AB, priority 2015, dated 2021)
Each block holds one substance with its values, some of them ahead of it. Ends that are not written are not given here.

Tests used:
P3028 (SEQ ID NO: 185) = P3028 (SEQ ID NO: 185) (Homo sapiens, UniProt P02768); experiment: Positional scan: P3028 binding to solid phase P28R variants (ELISA)
Experimental: Positional scan data was used to study the influence of substitution of different types of amino acids in each position of P28R (SEQ ID NO: 2) on the binding of P3028 (SEQ ID NO: 185). Each amino acid in the peptide sequence of P28R (SEQ ID NO: 2) was exchanged with all of the naturally occurring amino acids, and immobilized on a solid phase chip. The binding of P3028 to these “mutated” P28 R peptides synthesized on a chip was determined using the ELISA technique. In view of the results, Table 13 includes a column identifying optional substitutions at each position that can maintain binding to P3028.

[1] = test system: PBMCs from healthy control person; experiment: PBMC activation (CD69/CD71, flow cytometry) in RPMI plus 10% human AB serum; assay type: cell-based; settings: 40 μg/mL, 24 hours, healthy PBMCs
Experimental: The activity of peptide P28R (SEQ ID NO: 2) and modifications of P28R was studied in a human ex vivo model using PBMCs in short term cultures, 24 or 48 hours. Effects of P28R and modifications of P28R on PBMCs from a healthy control person were studied. Activation was measured as percentage of cells with enhanced marker CD69 using flow cytometry. PBMCs were incubated with the peptides (40 μg/mL) for 24 hours in RPMI plus 10% human AB serum.
As observed in Example 37, P28R (SEQ ID NO: 2) can stimulate PBMCs from healthy controls in short term cultures when RPMI plus 10% normal human AB serum is used as culture medium. Truncations of P28R were also assessed for their ability to activate PBMCs. PBMCs were incubated with the peptides (40 μg/mL) for 24 hours in RPMI plus 10% human AB serum. PBMC activation was measured as percent cells with enhanced expression of either CD69 (FIG. 42A) or CD71 (FIG. 42B) using flow cytometry. Two experiments were performed for each peptide.
Effects of modified peptides on activation of PBMCs from healthy control person were assessed. Activation was determined as percentage of cells with enhanced marker CD69 or CD71 using flow cytometry. PBMCs were incubated with the peptides (40 μg/mL) for 48 hours in RPMI plus 10% human AB serum.

PBMCs [2] = experiment: PBMC activation (CD69) in culture medium with cancer sera; assay type: cell-based; settings: sera from dogs with cancer or human patients with cancer
[3] = biological target: P3028 (PGE73=His-tag-P3028) (Homo sapiens, UniProt P02768); experiment: Blocking of P3028 binding by peptide inhibitors in solution (PEPSCAN-based ELISA); settings: peptide 0.5 mg/mL
Experimental: Three candidate peptide inhibitors of P3028 sequences/structures were identified and their blocking capacity in solution was tested. Potential peptide inhibitors of P3028 were synthesized on a chip. The linear and/or CLIPS peptides were synthesized based on the amino acid sequence of the target protein using standard Fmoc-chemistry and deprotected using trifluoric acid with scavengers. The constrained peptides were synthesized on chemical scaffolds in order to reconstruct conformational epitopes, using Chemically Linked Peptides on Scaffolds (CLIPS) technology (Timmerman et al. (2007)). For example, the single looped peptides were synthesized containing a dicysteine, which was cyclized by treating with alpha, alpha′-dibromoxylene and the size of the loop is varied by introducing cysteine residues at variable spacing. […] After one hour, the color development was measured. The color development was quantified with a charge coupled device (CCD)—camera and an image processing system.
The raw data (Raw Data: Optical density, Arbitrary OD units) are optical values obtained by a CCD-camera. The values mostly range from 0 to 3000, a log scale similar to 1 to 3 of a standard 96-well plate ELISA-reader. […] Sometimes a well contains an air-bubble resulting in a false-positive value, the cards are manually inspected and any values caused by an air-bubble are scored as 0. […]

PBMCs [4] = experiment: Mitochondrial metabolism of PBMCs, conversion of MTS; assay type: cell-based, human; settings: PBMCs from cancer patients, 5-40 μg/ml
Experimental: PBMCs from eight healthy control samples and nine cancer patients with various diagnoses (including renal cell cancer, malignant melanoma, rectal cancer, small cell lung cancer, non-small cell lung cancer (adenocarcinoma), squamous cell carcinoma, bladder cancer, osteosarcoma, pancreatic cancer, or bronchial cancer) were cultured in a modified version of the ex vivo model of Example 2 for seven days in the presence of various quantities of P28R (SEQ ID NO: 2), and control samples were untreated with P28R. […] Similar results were obtained when the PBMCs were cultured for only three days.
PBMCs from cancer patients with various diagnoses were cultured in a modified version of the ex vivo model of Example 2 with various concentrations of P28R or P27 (N=9 for P28R: N=8 for P27). The concentrations were either untreated control samples, 5 μg/mL (“SCF28-R5” and “SCF275”), 10 μg/ml (“SCF28-R10” and “SCF2710”), 20 μg/ml (“SCF28-R20” and “SCF2720”), or 40 μg/ml (“SCF28-R40” and “SCF2740”).

PBMCs [5] = experiment: IL-2 induced proliferation of PBMCs, BrdU incorporation; assay type: cell-based, human; settings: PBMCs with low initial proliferation / low response to IL-2, 7 days
Experimental: PBMCs were cultured for 7 days with IL-2 and the proliferative rate was determined as incorporation of BrdU. Each bar represents mean value of triplets. Similar to the studies on the efficacy of antibodies (see FIG. 22) directed against P3028 to reverse cancer related immunosuppression determined as a poor proliferative response of PBMCs from cancer patients to IL-2, the efficacy of the low molecular weight inhibitor P28R on reversal of suppressed IL-2 induced proliferation was investigated. For each quantity of added P28R, IL-2 stimulated cells 240 are shown in the left, and unstimulated 242 are shown on the right. […]
The effect of P28R (SEQ ID NO: 2) on IL-2 induced proliferation was measured in a BrdU incorporation assay. […]
The response of high responders and low responders to various doses of P28R was compared. […] IL-2-induced proliferation was measured as BrdU incorporation, as in the above example, and the results are shown for high responders in FIG. 36A, and low responders in FIG. 36B.
PBMCs from low responder cancer patients of Example 30 were cultured as in Example 30, except that some samples were cultured with various concentrations P28R (aka “SCF28-R”), and others were cultured with various concentrations of P27 (aka “SCF27”). […] BrdU incorporation was measured as in Example 30. […]

PBMCs [6] = experiment: Direct binding to PBMCs (immunocytochemistry, rosetting of coated beads); parameters: species or system human

Substance: FFVKLS [P28 core]
binding to P3028 based on positional scans (P3028 (SEQ ID NO: 185)): as efficiently as the full length peptide P28R | PBMC activation, enhanced CD69 or CD71 [1]: did not activate | PBMC activation, enhanced CD69 (PBMCs [2]): activated PBMCs

blocking of the binding of P3028 in solution [3]: does not
Substance: KKLDTFFKKLSLFTER [P27]
effect on MTS conversion (PBMCs [4]): no effect | effect on IL-2 induced proliferation (BrdU) (PBMCs [5]): enhanced the proliferative rate

Substance: biotinylated P28R: P28R labelled with biotin (KKLDTFFVKLSLFTER; also: biotin label, position not given here)
direct binding to PBMCs (PBMCs [6]): bind directly to PBMCs
